Laboratory results as given in ChEMBL document CHEMBL1201862, “PubChem BioAssay data set” (2004).
Active and inactive are the calls of the source.

Columns and labels:
[1] = target: Luciferin 4-monooxygenase (Photinus pyralis, UniProt P08659); assay: Counter Screen for Luciferase-based Assay Positives. [Related pubchem assays: 620, 618, 411 ]
HT-1080 = assay: cytotoxicity in HT1080 fibrosarcoma cells, cell-based, fluorescence readout (AID 620); format: functional; conditions: Homo sapiens
[2] = target: Dual specificity tyrosine-phosphorylation-regulated kinase 1A (Rattus norvegicus, UniProt Q63470); format: biochemical, Homo sapiens
[3] = HepG2 cell cytotoxicity, dose response, cytotoxicity control, ATP luminescence, cherry-pick, activator set 2 (AID 1053143); format: functional, cell-based
Escherichia coli = assay: microbe, parasite or virus in culture
[4] = test system: Streptococcus sp. 'group A'; assay: growth inhibition of control SK(-) GAS strain, dose response, counter-screen for streptokinase expression inhibitor project, luminescence, kanamycin, BacTiterGlo, confirmation (AID 1900); format: functional, organism-based
Streptococcus = assay: Group A Streptococcus viability loss, dose response, counter-screen for streptokinase expression inhibitor project, luminescence, BacTiterGlo (AID 1915); format: functional, organism-based;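 note: potency for reduction of bacterial viability or growth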
[5] = target: T1, Short transient receptor potential channel 4 (Mus musculus, UniProt Q9QUQ5); assay: mouse TRPC4 channel activators, dose response, cell-based, HEK293 TRPC4/mu-opioid, Fluo-4 calcium (AID 434937); format: functional
T1 sequence (Q9QUQ5 whole entry): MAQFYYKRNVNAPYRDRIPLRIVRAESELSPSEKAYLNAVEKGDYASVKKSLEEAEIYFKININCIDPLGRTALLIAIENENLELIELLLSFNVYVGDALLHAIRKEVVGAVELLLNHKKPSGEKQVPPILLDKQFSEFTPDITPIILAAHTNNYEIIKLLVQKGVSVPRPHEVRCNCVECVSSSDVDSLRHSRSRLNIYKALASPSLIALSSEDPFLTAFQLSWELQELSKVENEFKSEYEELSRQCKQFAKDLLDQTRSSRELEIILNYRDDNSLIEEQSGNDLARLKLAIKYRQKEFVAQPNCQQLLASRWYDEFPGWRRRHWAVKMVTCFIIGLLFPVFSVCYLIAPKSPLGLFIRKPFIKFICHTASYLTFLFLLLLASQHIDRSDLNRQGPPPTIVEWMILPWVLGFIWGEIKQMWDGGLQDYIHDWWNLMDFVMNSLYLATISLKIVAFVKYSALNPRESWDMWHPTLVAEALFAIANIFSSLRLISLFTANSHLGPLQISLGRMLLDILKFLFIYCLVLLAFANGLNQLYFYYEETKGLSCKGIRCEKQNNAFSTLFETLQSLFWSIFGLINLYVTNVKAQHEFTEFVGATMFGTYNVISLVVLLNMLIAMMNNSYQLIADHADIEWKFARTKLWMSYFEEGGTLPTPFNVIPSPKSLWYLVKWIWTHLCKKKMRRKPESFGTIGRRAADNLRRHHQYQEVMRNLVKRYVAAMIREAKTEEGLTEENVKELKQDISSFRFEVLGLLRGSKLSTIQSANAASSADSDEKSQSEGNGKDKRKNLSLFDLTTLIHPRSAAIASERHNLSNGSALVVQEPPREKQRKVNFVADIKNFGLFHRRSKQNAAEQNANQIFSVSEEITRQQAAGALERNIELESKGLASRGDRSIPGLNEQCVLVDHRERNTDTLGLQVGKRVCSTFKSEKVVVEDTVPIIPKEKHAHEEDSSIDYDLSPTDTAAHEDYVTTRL

[6] = human group III sPLA2 inhibitors, dose response, biochemical, QFRET, IC50 (AID 743457);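 note: green fluorescence rise as the enzyme cleaves BODIPY PC-A2 in liposomes; potency for inhibition of the enzyme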
[7] = HIF luciferase reporter inhibitors, dose response, ARNT-TACC3 inhibitor project, cell-based, dry powder samples, luminescence, 2158-07 (AID 720561); format: functional
[8] = target: Oxysterols receptor LXR-beta (Homo sapiens, UniProt P55055); format: functional, cell-based;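 note: Cell-based luminescence dose-response assay of agonist activity at LXR, run as a confirmatory counterscreen to a daf-12 agonist screen; HEK293 cells with Gal4-LXR fusion and GAL4-driven luciferase reporter; agonist potency from rising luciferase signal of a Gal4-LXR reporter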
Sequence of Oxysterols receptor LXR-beta (P55055 whole entry, the tested form may be a part): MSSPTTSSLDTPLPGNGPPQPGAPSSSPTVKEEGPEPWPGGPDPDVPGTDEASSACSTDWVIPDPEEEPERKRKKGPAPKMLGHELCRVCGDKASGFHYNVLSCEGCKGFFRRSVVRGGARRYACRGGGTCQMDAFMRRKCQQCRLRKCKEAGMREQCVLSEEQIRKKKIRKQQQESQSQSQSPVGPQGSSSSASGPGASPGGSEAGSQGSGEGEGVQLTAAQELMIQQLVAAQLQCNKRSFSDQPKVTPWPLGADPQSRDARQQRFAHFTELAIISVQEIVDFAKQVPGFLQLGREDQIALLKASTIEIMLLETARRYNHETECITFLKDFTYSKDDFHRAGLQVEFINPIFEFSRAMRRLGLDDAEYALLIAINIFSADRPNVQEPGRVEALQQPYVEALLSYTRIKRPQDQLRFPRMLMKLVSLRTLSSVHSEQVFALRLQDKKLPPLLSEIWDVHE

CHO = assay: cytotoxicity in TLR9-MyD88 CHO cells, dose response, cytotoxicity control for TLR9-MyD88 binding inhibitor project, cell-based, luminescence (AID 588339); format: functional, hamster; conditions: Cricetulus griseus;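 note: CHO cells stably coexpressing TLR9 and MyD88 fusions from primary screen; compound exposure lasted 48 hours before viability readout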
Beta Lactamase = Beta Lactamase (Pseudomonas aeruginosa, UniProt Q932Y6); assay: beta-lactamase reporter inhibitor potency, dose response, artefact control for TLR9-MyD88 binding inhibitor project, BLA reporter cells, FRET fluorescence (AID 588341); format: cell-based;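 note: cell based assay in CHO-K1 cells stably expressing beta-lactamase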
Sequence of Beta Lactamase (Q932Y6 whole entry): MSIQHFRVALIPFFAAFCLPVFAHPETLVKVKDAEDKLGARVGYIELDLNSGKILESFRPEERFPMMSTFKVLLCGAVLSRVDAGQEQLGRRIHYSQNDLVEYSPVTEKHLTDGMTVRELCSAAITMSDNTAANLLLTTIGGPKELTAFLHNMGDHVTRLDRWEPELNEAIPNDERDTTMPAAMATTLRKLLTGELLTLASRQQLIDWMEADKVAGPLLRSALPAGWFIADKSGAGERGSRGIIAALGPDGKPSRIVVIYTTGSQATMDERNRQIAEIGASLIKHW

[9] = target: T2, Rac GTPase-activating protein 1 (Homo sapiens, UniProt Q9H0H5); assay: MgcRacGAP GTPase-activating activity inhibitors, confirmation, biochemical, ADP Hunter fluorescence, primary and confirmatory (AID 624330); format: functional
T2 sequence (Q9H0H5 whole entry): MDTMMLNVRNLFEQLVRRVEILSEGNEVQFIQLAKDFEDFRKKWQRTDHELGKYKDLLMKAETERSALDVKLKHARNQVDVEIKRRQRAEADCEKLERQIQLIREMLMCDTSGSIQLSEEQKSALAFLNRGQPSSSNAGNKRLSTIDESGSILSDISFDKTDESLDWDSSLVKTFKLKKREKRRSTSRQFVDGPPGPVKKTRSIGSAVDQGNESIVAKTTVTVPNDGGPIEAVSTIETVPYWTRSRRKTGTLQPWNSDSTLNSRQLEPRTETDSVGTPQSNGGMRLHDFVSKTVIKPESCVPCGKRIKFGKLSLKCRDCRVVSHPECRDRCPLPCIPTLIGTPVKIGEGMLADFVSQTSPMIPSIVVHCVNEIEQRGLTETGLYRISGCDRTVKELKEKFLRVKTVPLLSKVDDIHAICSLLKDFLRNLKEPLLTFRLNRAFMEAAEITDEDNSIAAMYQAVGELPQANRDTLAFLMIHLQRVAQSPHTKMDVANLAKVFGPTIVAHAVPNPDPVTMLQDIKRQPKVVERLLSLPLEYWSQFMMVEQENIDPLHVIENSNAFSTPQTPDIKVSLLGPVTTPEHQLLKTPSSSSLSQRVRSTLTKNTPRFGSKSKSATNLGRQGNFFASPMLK

NS3 = NS3 (Hepatitis C virus, UniProt A3EZJ3); assay: HCV NS3 helicase inhibitor potency, dose response, biochemical, fluorescence polarization, ChemBridge library (AID 743264)
Sequence of NS3 (A3EZJ3 whole entry): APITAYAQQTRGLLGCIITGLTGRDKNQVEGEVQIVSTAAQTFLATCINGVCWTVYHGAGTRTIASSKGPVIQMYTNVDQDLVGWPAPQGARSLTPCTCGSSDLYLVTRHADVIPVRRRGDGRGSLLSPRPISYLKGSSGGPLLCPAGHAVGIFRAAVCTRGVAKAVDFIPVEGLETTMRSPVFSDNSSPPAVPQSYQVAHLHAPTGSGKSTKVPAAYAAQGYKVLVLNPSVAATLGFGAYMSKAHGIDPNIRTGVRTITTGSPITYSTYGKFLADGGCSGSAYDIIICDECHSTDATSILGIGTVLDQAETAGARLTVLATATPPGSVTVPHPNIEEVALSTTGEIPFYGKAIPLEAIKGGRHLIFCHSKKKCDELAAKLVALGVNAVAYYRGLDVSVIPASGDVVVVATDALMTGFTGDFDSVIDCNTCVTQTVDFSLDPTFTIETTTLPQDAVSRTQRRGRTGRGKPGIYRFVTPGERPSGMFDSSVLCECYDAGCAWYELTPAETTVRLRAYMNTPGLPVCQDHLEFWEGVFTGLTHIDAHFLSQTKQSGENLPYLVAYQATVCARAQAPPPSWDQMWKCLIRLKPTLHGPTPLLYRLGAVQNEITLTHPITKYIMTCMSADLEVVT

Coagulation factor XII = target: T3, Coagulation factor XII (Homo sapiens, UniProt P00748); format: functional;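 note: activated factor XIIa alpha cleaving a fluorogenic AMC peptide substrate; inhibitor potency from loss of enzyme activity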
T3 sequence (P00748 whole entry): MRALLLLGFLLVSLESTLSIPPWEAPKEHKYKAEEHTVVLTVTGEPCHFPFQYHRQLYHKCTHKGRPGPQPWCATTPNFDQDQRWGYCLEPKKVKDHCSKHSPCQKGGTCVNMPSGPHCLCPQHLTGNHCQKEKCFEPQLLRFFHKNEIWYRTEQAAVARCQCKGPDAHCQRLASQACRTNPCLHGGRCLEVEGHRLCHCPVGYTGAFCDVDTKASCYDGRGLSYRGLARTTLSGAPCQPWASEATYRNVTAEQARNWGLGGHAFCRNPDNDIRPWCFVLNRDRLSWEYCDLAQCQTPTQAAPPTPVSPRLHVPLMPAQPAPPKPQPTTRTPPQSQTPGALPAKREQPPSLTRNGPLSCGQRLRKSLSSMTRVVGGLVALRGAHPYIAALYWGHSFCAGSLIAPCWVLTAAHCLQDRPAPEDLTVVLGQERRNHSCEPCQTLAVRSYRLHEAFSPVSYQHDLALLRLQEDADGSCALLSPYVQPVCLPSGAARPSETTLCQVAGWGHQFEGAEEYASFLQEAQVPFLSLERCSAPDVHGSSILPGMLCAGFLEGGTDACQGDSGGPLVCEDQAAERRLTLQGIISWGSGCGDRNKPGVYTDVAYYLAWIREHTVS

[10] = target: 1-phosphatidylinositol 4,5-bisphosphate phosphodiesterase gamma-1 (Homo sapiens, UniProt P19174); assay: Counterscreen for inhibitors of phospholipase C isozymes (PLC-B3): Fluorescence-based biochemical high throughput dose response assay to identify inhibitors of phospholipase C isozymes (PLC-gamma1).
Sequence of 1-phosphatidylinositol 4,5-bisphosphate phosphodiesterase gamma-1 (P19174 whole entry): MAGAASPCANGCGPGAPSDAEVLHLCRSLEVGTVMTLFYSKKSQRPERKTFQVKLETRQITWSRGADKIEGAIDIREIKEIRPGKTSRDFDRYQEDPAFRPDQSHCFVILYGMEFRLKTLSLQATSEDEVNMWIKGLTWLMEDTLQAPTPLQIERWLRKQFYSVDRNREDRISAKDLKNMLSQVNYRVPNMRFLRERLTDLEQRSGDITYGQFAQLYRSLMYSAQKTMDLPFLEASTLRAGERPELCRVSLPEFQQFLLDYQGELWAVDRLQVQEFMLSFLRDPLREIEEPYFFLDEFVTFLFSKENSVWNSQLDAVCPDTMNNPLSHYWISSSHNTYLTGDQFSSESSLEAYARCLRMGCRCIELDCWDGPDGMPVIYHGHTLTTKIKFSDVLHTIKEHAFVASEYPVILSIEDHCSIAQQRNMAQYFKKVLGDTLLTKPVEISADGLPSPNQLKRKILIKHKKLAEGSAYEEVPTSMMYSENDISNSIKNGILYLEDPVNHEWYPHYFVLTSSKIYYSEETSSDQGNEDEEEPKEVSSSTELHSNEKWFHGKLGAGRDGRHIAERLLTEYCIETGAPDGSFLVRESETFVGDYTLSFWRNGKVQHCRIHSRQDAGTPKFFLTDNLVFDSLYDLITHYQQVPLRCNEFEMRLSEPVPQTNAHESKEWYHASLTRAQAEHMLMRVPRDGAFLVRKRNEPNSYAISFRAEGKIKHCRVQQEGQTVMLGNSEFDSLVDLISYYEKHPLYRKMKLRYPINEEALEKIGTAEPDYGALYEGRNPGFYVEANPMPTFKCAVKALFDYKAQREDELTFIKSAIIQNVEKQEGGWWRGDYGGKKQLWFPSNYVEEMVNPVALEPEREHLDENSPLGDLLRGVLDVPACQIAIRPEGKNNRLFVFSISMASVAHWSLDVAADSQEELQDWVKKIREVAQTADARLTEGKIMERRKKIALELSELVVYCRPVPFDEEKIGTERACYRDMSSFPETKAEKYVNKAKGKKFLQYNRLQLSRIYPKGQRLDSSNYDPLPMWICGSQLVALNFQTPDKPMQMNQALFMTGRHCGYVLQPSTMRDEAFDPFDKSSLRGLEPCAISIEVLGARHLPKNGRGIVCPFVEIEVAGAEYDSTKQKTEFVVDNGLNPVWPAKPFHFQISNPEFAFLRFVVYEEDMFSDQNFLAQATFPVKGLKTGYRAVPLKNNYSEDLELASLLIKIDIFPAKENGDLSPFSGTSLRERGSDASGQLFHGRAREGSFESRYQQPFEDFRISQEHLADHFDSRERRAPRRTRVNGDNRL

[11] = target: 1-phosphatidylinositol 4,5-bisphosphate phosphodiesterase beta-3 (Homo sapiens, UniProt Q01970); assay: Fluorescence-based biochemical high throughput dose response assay to identify inhibitors of phospholipase C isozymes (PLC-B3).
HEK293 = assay: HEK293T cell cytotoxicity, dose response, cytotoxicity control, ATP luminescence, cherry-pick samples (AID 687005); format: functional, cell-based; conditions: Homo sapiens;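 note: cells exposed to compound for 48 hours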
[12] = HEK293 Cytotoxicity Assay Measured in Cell-Based System Using Plate Reader - 7071-01_Inhibitor_Dose_CherryPick_Activity_Set2.; format: functional
[13] = P. falciparum 3D7-ScDHODH growth inhibitors, dose response, SYBR Green, dry powder samples (AID 1159570); format: functional, cell-based;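 note: parasite growth measured after 72 hours of compound exposure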
[14] = P. falciparum Dd2 growth inhibitors, dose response, SYBR Green, cherry-picked samples (AID 1159567); format: functional, cell-based
[15] = P. falciparum Dd2 growth inhibitors, dose response, SYBR Green, dry powder samples (AID 1159566); format: functional, cell-based;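 note: potency for growth inhibition with lower SYBR green DNA signal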
[16] = P. falciparum ATP4 D1247Y mutant growth inhibitors, dose response, NITD609-resistant line, SYBR Green, dry powder (AID 1159571); format: functional, cell-based;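 note: parasites synchronized at ring stage by sorbitol before testing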
[17] = Late stage assay provider results from the probe development effort to identify inhibitors of the Plasmodium falciparum M18 Aspartyl Aminopeptidase (M18AAP): radiolabel-based cell-based dose response assay to identify compounds that inhibit P. falciparum growth in RBCs, Set 2..; format: functional
[18] = inhibitors of non-replicating M. tuberculosis, dose response, luciferase, dry powder (AID 651619); format: functional; conditions: Mycobacterium tuberculosis
[19] = cytotoxicity in HepG2 cells, dose response, cytotoxicity control, cell-based, plate reader, dry powder (AID 651947); format: functional
[20] = cytotoxicity in HeLa cells, dose response, cytotoxicity control, cell-based, plate reader, dry powder (AID 651946); format: functional
[21] = inhibitors of non-replicating M. tuberculosis, dose response, luciferase, dry powder (AID 651620); format: functional; conditions: Mycobacterium tuberculosis
[22] = growth inhibition of replicating M. tuberculosis, dose response, counter-screen, dry powder, IC90 (AID 651617); format: functional; conditions: Mycobacterium tuberculosis
[23] = HEK293T cell cytotoxicity, dose response, cytotoxicity control, CellTiter-Glo luminescence, dry powder, set 6 (AID 651949); format: functional, cell-based; conditions: HEK293
[24] = target: C-X-C chemokine receptor type 4 (Homo sapiens, UniProt P61073); assay: SAR analysis of small molecule antagonists of the CXCR6 receptor using a CXCR4 receptor luminescent beta-arrestin counterscreen.; format: functional
Sequence of C-X-C chemokine receptor type 4 (P61073 whole entry): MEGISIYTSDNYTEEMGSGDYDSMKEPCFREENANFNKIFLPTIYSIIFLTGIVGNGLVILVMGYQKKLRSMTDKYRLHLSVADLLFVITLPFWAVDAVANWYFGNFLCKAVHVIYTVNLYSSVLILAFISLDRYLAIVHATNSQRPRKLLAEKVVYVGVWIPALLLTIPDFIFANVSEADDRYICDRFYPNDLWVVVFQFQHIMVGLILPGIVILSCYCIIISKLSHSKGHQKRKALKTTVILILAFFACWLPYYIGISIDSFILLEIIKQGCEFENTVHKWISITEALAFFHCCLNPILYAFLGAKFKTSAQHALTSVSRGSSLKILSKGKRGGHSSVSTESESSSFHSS

[25] = target: C-C chemokine receptor type 6 (Homo sapiens, UniProt P51684); assay: SAR analysis of small molecule antagonists of the CXCR6 receptor using a CCR6 receptor luminescent beta-arrestin counterscreen.; format: functional
Sequence of C-C chemokine receptor type 6 (P51684 whole entry): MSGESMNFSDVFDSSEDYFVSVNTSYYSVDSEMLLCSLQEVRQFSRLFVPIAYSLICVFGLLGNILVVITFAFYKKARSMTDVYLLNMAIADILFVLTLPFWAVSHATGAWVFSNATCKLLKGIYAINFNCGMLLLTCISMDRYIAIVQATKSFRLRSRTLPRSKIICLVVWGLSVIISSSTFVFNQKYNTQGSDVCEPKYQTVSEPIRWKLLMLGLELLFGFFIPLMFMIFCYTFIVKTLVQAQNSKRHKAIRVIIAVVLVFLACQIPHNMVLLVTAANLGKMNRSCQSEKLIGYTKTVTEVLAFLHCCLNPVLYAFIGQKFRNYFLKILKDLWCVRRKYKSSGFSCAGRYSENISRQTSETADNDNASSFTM

[26] = target: Protein disulfide-isomerase (Homo sapiens, UniProt P07237); assay: PDI inhibitors, insulin turbidity readout, confirmation, biochemical, dry powder samples, set 2 (AID 652146)
Sequence of Protein disulfide-isomerase (P07237 whole entry): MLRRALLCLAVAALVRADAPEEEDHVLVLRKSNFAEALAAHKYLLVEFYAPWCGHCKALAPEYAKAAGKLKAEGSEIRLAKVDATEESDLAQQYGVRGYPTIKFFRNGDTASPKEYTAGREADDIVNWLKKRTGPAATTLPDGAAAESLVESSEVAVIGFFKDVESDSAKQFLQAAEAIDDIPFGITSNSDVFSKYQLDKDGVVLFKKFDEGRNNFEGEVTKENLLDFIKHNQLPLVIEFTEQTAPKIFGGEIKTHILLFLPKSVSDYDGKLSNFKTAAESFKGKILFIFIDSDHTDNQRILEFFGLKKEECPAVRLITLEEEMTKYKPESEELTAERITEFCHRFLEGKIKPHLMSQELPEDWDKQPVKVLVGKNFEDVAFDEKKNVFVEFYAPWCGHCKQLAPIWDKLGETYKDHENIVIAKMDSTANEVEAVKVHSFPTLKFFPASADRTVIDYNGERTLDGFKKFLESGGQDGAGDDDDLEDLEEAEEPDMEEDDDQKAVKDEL

[27] = CTGF mRNA reduction under YAP1 overexpression, dose response, mechanism study for YAP1 pathway inhibitor project, DLD1 cells, RT-qPCR, cherry-pick (AID 1053127); format: functional, cell-based; conditions: DLD-1
[28] = YAP1 pathway inhibition via CTGF transcript levels, dose response, cell-based, DLD1 colon cancer, RT-qPCR, cherry-pick (AID 1053122); format: functional; conditions: Cancer cell lines
[29] = target: NAD-dependent protein deacylase sirtuin-5, mitochondrial (Homo sapiens, UniProt Q9NXA8); assay: SIRT5 deacylase inhibitors, dose response, biochemical, fluorescence imaging, cherry-pick, set 6 (AID 720597)
Sequence of NAD-dependent protein deacylase sirtuin-5, mitochondrial (Q9NXA8 whole entry): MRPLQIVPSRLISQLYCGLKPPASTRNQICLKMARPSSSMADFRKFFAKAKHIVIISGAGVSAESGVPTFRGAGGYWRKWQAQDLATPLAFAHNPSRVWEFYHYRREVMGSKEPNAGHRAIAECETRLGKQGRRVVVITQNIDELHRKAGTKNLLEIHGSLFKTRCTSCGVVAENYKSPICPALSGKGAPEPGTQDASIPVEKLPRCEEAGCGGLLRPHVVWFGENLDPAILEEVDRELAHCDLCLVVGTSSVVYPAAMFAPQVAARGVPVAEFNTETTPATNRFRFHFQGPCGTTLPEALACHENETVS

[30] = HepG2 cell cytotoxicity, dose response, cytotoxicity control, ATP luminescence, cherry-pick, set 6 (AID 1053125); format: functional, cell-based

Sequence of Luciferin 4-monooxygenase (P08659 whole entry): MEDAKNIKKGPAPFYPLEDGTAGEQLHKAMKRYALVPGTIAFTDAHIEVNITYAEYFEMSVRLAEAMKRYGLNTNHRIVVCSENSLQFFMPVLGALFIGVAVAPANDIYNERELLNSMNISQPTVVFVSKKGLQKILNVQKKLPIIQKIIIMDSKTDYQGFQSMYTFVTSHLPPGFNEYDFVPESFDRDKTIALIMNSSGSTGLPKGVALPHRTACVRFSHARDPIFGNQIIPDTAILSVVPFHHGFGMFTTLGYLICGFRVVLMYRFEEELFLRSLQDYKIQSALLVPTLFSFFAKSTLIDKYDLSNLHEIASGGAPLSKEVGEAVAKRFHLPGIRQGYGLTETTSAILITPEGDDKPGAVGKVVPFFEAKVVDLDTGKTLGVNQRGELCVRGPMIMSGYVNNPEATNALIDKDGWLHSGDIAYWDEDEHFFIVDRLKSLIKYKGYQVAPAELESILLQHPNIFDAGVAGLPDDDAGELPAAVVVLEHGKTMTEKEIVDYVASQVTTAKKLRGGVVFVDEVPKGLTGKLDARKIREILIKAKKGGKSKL

Compound: Nc1ccc(C(=O)Nc2nc3ccccc3s2)cc1
- EC50 [1]: 0.32 µM (active)
- EC50 (HT-1080): > 50 µM (not active)
- AC50 [2]: 4.15 µM (active)
- AC50 [3]: 26 µM (active)
- AC50 (Escherichia coli): 47.5 µM (active)

Compound: Cc1onc(-c2ccccc2)c1C(=O)NNC(=S)NC(=O)c1ccc2c(c1)OCO2
- EC50 [4]: 0.978 µM (active)
- EC50 (Streptococcus): 4.64 µM (active)
- EC50 [5]: 4.22 µM (active)
- IC50 [6]: 56.6 µM (inactive)

Compound: O=C(Nc1nnc(C2=COCCO2)o1)c1ccc(S(=O)(=O)N2CCCCC2)cc1
- AC50 [7]: > 100 µM (inactive)

Compound: COc1ccccc1C(=O)NC(=S)Nc1cccnc1Cl
- EC50 [8]: > 67.5 µM (inactive)
- EC50 (cells): > 67.5 µM (inactive)

Compound: O=C1C=CC(=O)N1c1ccccc1N1C(=O)C=CC1=O
- IC50 (CHO): 2.55 µM (active)
- IC50 (Beta Lactamase): 13.6 µM (inactive)
- IC50 [9]: 62.2 µM (active)
- IC50 (NS3): 34.9 µM (inactive)

Compound: CS(=O)(=O)c1nc(-c2ccc(Br)cc2)n[nH]1
- IC50 (Coagulation factor XII): > 50 µM (inactive)
- IC50 [10]: 50.8 µM (inactive)
- IC50 [11]: > 122 µM (inactive)

Compound: COc1ccc(C#Cc2ccc3c(c2)O[C@H](CN(C)C(=O)Nc2cccc(OC)c2)[C@H](C)CN([C@@H](C)CO)S3(=O)=O)cc1
- AC50 (HEK293): 26.3 µM (active)
- AC50 [12]: 26.3 µM (active)
- AC50 [13]: 2.21 µM (active)
- AC50 [14]: 1.46 µM (active)
- AC50 [15]: 1.06 µM (active)
- AC50 [16]: 1.69 µM (active)

Compound: Oc1ccc(CCNc2ccnc3ccccc23)cc1O
- IC50 [17]: 3.9 µM (active)

Compound: [O-][S+](Cc1cn(Cc2ccccc2)nn1)c1nnc(-c2ccc(Cl)cc2)o1 (centres undefined)
- IC90 [18]: 2 µM (active)
- AC50 [19]: 19.6 µM (active)
- AC50 [20]: 24.2 µM (active)
- IC90 [21]: 2 µM (active)
- IC90 [22]: 125 µM (active)

Compound: CN(Cc1ccccc1)c1nnc(-c2ccccc2)o1
- AC50 [23]: > 52 µM (inactive)

Compound: COc1cc(C(=O)NC2CC3CCCC(C2)N3CC(=O)Nc2ccc(F)cc2)cc(OC)c1OC (centres undefined)
- IC50 [24]: > 79 µM (inactive)
- IC50 [25]: > 79 µM (inactive)

Compound: CCOC(=O)C1(CCOc2ccccc2)CCN(C(=O)c2ccc(O)c(Cl)c2)CC1
- AC50 [26]: 3 µM (active)

Compound: CO[C@@H](CN(C)S(=O)(=O)c1ccc(C)cc1)[C@H](C)CN([C@H](C)CO)S(=O)(=O)c1cccc(Cl)c1
- AC50 [27]: 4.83 µM (active)
- AC50 [28]: 4.99 µM (active)

Compound: C[C@H](CO)N1C[C@H](C)[C@H](CN(C)C)Oc2ccc(NC(=O)Nc3ccc(F)cc3)cc2CC1=O
- AC50 [29]: 11.5 µM (active)

Compound: CC(=O)/N=c1\c(C#N)cc2c(=O)n3ccccc3nc2n1CCCOC(C)C
- AC50 [30]: > 52 µM (inactive)
